Where “and” joins values, the source holds several entries; their conditions need not be identical. Equal entries are not always repeated.
Tests used:
neuronal cell lines = conditions: Tanaka et al. 1998; cited from earlier work
[1] = test system: human neuroblastoma SH SY5Y cell line; test: Cultivation of SH SY5Y cells with TrpRS inhibitors; format: cell-based; conditions: for cell survival after cultivation with inhibitor: 50-100 μg/ml, 5 days, initial density 1×10^3 on 10-cm dishes
Procedure: The involvement of TrpRS inhibitors in neurofibrillary tangles formation was tested in the human neuroblastoma SH SY5Y cell line expressing tau. Tanaka et al., FEBS Lett. 426: 248-254 (1998). This cloned line comprises two morphologically distinct cell types: predominantly neuroblastic (bearing short neurites) and epithelial-like (lacking neurites). Biedler et al., Cancer Res. 33: 2643-2652 (1973). SH SY5Y cells were grown in 25 cm^2 flasks (TPP, Switzerland) in 5% CO2 at 37° C. in RPMI 1640 medium supplemented with 10% fetal calf serum, 100 u/ml penicillin, 100 μg/ml streptomycin, 0.25 μg/ml amphoterycin and 2 mM glutamine. The neuron/axon lines were isolated after seeding microscopically verified single […] cells.
Continuous treatment with lower concentrations of the inhibitors led to accumulation of large flattened, tightly substrate adherent epithelial-like cells lacking neurites, while the majority of neuroblasts died.
TrpRS was mainly localized in axons and to a less extent in the neuronal body and dendrites (wrs, FIG. 1e). […] In some sublines, however no neuroblasts were observed during 12 months cultivation without inhibitors (low panel, FIG. 1f).

SH SY5Y cells = test: Tryptamine treatment of epithelial-enriched and neuron-axon SH SY5Y cells, staining and electron microscopy; format: cell-based, human; conditions: 20-100 μg/ml tryptamine for 6-60 days, electron microscopy
Procedure: To examine control epithelial cells, which were not pretreated with inhibitors, neuroblastic and epithelial-enriched cells were separated from one another by exploiting a marked difference in adhesive properties. Biedler et al., Cancer Res. 33: 2643-2652 (1973). The weakly adherent neuroblasts were washed out with trypsin. The selected epithelial-enriched and tryptamine-differentiated neuron-axon cells were treated with 20-100 μg/ml tryptamine for 6-60 days and then stained. […] (Mouse anti-human PHF-tau, clone AT8 against epitope containing phosphorylated Ser202 was obtained from Innogenetics (Ghent, Belgium).)
To test whether TrpRS and tau co-localize in neurofibrillary tangles, fluorescent double labeling with AT8 and anti-TrpRS was performed. In acute-treated cells, the proteins were co-localized both in I-NFT-like encircled nuclei (FIG. 2e, f, i, and j) and E-NFT-like manifestations (FIG. 2g). In the perikarya of the control pretreated or untreated epithelial cells, few if any such formations were labeled (FIG. 2h and FIG. 2k). The staining is specific. The staining was absent in the control specimens probed with secondary antibodies (FIG. 2l).
To test whether tryptamine-induced manifestations are associated with neurofilaments, the cells were prepared either as a suspension (FIG. 2m) or as a monolayer and then analyzed by electron microscopy. […]

TrpRS = test: Western blot of TrpRS in detergent-insoluble fraction of treated cells; format: cell-based, human; conditions: 6C10/C9 blot
Procedure: The involvement of tau and TrpRS in tryptamine-induced phenotypes was tested in extracts of control and treated cells. Triton extraction was performed as follows: Cells were lysed in 0.1 M Hepes buffer, pH 6.9, 0.5% Triton X100, 1 mM MgCl2, 0.1 mM EDTA, 2 mM EGTA, 1 mM DTT, 1 mM PMSF, 0.4 mg/ml aprotinin, 0.1 mg/ml antipain, leupeptin, pepstatin, and hemastatin, 0.1 μM okadaic acid, 10 mM sodium ortovanadate, and 50 mM sodium fluoride for 20 min in situ at room temperature. The detergent-insoluble fraction was collected with scraper and washed in the same buffer excluding inhibitors of phosphatases. The detergent-insoluble fraction was then solubilized in SDS-sample buffer at 100° C. for 5 min, and spun. […]
In the Western blot, both human recombinant ˜54 kDa and bovine ˜60 and ˜40-42 kDa (well-characterized proteolytic fragments) TrpRS reacted with 6C10/C9 and polyclonal antibodies (FIG. 3b), while poorly with 9D7. The main form and an additional high molecular weight TrpRS were induced in detergent-insoluble cytoskeleton by tryptamine treatment (right panel, FIG. 3c), whereas no difference was detected between acute-treated and pretreated cells (left and middle panels, FIG. 3c) when total extracts were analyzed. In the cytoskeleton of both treated and control cells, TrpRS was detected at a lower molecular weight than the cytoplasmic TrpRS (FIG. 3c). […]

mice [2] = test: Running on a narrow stick, tryptamine-treated mice; format: in vivo; conditions: individual mouse
Procedure: (§1) An Alzheimer's disease mouse model was obtained by using intravenous injections of male mice at 8 weeks or age- and sex-matched mice with 1-500 micrograms of tryptamine every second day for at least 2.5 weeks. In one embodiment, mice are injected with 50 micrograms of tryptamine for 4 months. However, the duration of treatment, intervals between injections and concentrations of tryptamine can be successfully varied. Control mice are injected with phosphate-buffered saline.
Behavioral tests with control and tryptamine-treated mice. Behavioral assays with control and tryptamine-treated mice included tests for movement or coordination, sense of balance, orientation, and loss of interest. The behavioral tests in which the tryptamine-treated mice were tested included (a) a test of stable sitting (following 3 months of treatment), and (b) a test of running on a narrow stick (following 3, 4 and 6 months of the treatment). […] As shown in the testing this behavior of mice is age-dependent. […] The data obtained regarding behavior of the control and tryptamine-treated mice are in good agreement with later signs of Alzheimer's disease compared with normal signs of aging (Source: Alzheimer's Disease: early warning signs and diagnostic resources. The Junior League of NYC, Inc, 1988).
The model mice were made to run on a white metallic 80 cm stick having a diameter of 1 cm stick and placed 30 cm over the surface of a platform. Data in TABLE I are: (a) lag time (time that the mice were sitting at one end of the stick before beginning to run); (b) run time; and (c) the % of the stick that the mice successfully completed.

mice [3] = test: Stability (balance) on narrow 1-cm stick; format: in vivo
Procedure: FIG. 7 is a set of tables and graphs showing measurements of the treated mice's behavior. The control and tryptamine-treated model mice were put on a narrow 1-cm diameter metallic stick. The time that mice balanced on the stick was measured in seconds. 66% of control versus 10% of treated mice kept on the stick for more than 6 seconds in the first experiment and 66% of control versus 20% of treated were for more than 13 seconds in the second experiment. Thus, the model mice were 6.6 times less balanced or coordinated than control.
FIG. 7 is a set of tables and graphs showing measurements of the treated mice's stability The control and tryptamine-treated model mice were put on a narrow 1 cm diameter metallic stick. The time of their presence on the stick was measured in seconds. […] Thus, the model mice are 6.6 times less balanced than control.

mice [4] = test: Brain histology of tryptamine-treated mice (Congo Red, Gallyas silver staining); format: in vivo; conditions: intravenous, every second day, at least 2.5 weeks of treatment
Procedure: as §1
Immunochemical assays with control and tryptamine-treated mice. Following tryptamine treatment, the brains of the treated model mice and the control untreated mice were routinely fixed; sectioned, stained and analyzed microscopically, using commonly used well-established methods. The mouse brains were examined for Alzheimer's-like manifestations.
These manifestations were not found in the control mice.
FIG. 5 is a set of micrographs showing Congo Red staining and birefringence of sagittal sections from brains of tryptamine-treated mice. […] FIG. 6 is a set of micrographs showing silver staining of Alzheimer's neurofibrillary changes in the brain sections of tryptamine-treated mice.

mice [5] = test: Observation of health and behavior of tryptamine-treated mice; format: in vivo
Procedure: as §1
The tryptamine-treated mice appear to be healthy in comparison to the control mice. The treated mice are clean and fat.

tryptamine binding site = conditions: cited from earlier work; for binding to tryptamine site (in words): human cortical membrane preparation, Mousseau & Butterworth 1994

SMILES: C=C1[C@@H](O)[C@@H]2O[C@]3(CC[C@H](/C=C/[C@@H](C)[C@@H]4CC(C)=C[C@@]5(O[C@H](C[C@@](C)(O)C(=O)O)CC[C@H]5O)O4)O3)CC[C@H]2O[C@@H]1[C@@H](O)C[C@H](C)[C@H]1O[C@@]2(CCCCO2)CC[C@H]1C [okadaic acid]
- effect on tau and neurofibrillary tangles (neuronal cell lines): results only in tau hyperphosphorylation, but not neurofibrillary tangles

SMILES: N[C@H](CO)Cc1c[nH]c2ccccc12 [tryptophanol]
- cell survival after cultivation with inhibitor [1]: all cells have died

SMILES: NCCc1c[nH]c2ccccc12 [tryptamine]
- cell survival after cultivation with inhibitor [1]: all cells have died
- relative toxicity for neuroblasts and epithelial cells ([1]; SH SY5Y): more toxic for neuroblasts than for epithelial cells
- neurodifferentiation of epithelial cells ([1]; continuous treatment with lower concentrations, then cultivation without inhibitors): induces neurodifferentiation of the epithelial cells
- neurofibrillary tangles in treated cells (SH SY5Y cells): numerous neurofibrillary tangles were found
- expression of cytoskeleton TrpRS forms (TrpRS): induces high expression of cytoskeleton TrpRS forms
- Run time (mice [2]; 80 cm stick, 1 cm diameter): 2 seconds and 0 seconds (7×) and 10 seconds and 17 seconds
- Lag time (mice [2]; 80 cm stick, 1 cm diameter, time sitting at one end before beginning to run): 50 seconds and 47 seconds and 11 seconds and 17 seconds and 13 seconds and 40 seconds and 3 seconds (2×) and 9 seconds and 15 seconds
- % of the way (mice [2]; % of the stick successfully completed): 40% and 0% (7×) and 20% and 50%
- % of treated mice kept on the stick for more than 6 seconds (mice [3]; first experiment, control 66%): 10%
- % of treated mice kept on the stick for more than 13 seconds (mice [3]; second experiment, control 66%): 20%
- times less balanced than control (mice [3]; treated versus control mice): 6.6 times
- Alzheimer's-like manifestations in brain sections (mice [4]): Senile plaques, neurofibrillary tangles, and neuropil threads and fibrils were detected
- toxic effect (mice [5]; four months of treatment): do not show any toxic effect
- aggressive behavior (mice [5]; in contrast to control mice): do not show aggressive behavior
- binding to tryptamine site (in words) (tryptamine binding site): most potent inhibitor

SMILES: COc1ccc2[nH]cc(CCN)c2c1 [5-methoxytryptamine]
- binding to tryptamine site (in words) (tryptamine binding site): higher binding to tryptamine site compared with 5-hydroxytryptamine

SMILES: N[C@@H](Cc1c[nH]c2ccccc12)C(=O)O [tryptophan]
- binding to tryptamine site (in words) (tryptamine binding site): dramatically lower binding to trypatmine site than tryptamine

SMILES: CC(N)Cc1ccccc1 (stereo not shown) [amphetamine]
- binding to tryptamine site (in words) (tryptamine binding site): higher affinity for the (+)-stereo isomer compared with (−)-isomer

SMILES: C#CCN(C)[C@H](C)Cc1ccccc1 [deprenyl]
- binding to tryptamine site (in words) (tryptamine binding site): higher affinity for the (+)-stereo isomer compared with (−)-isomer

SMILES: NCCc1c[nH]c2ccc(O)cc12 [5-hydroxytryptamine]
- lower binding to tryptamine site than tryptamine (tryptamine binding site; relative to tryptamine): > 100
